Results: publication PMC6713189, “Dual and selective inhibitors of pteridine reductase 1 (PTR1) and dihydrofolate reductase-thymidylate synthase (DHFR-TS) from Leishmania chagasi” (Journal of Enzyme Inhibition and Medicinal Chemistry, 2019)
Several values for one entry are separate records, joined by “and”; a condition that tells them apart may be missing. Equal values may be shown once. Read-outs that look alike come from different tables or passages of the source.

Assays:
LcDHFR-TS [1] = biological target: T1, LcDHFR-TS (Leishmania infantum, UniProt Q8MQV3); assay: LcDHFR-TS inhibition assay (single concentration and IC50, NADPH consumption at 340 nm); type: biochemical; settings: for IC50: DHF 5.0 µM, NADPH 5.0 µM, pH 7.0, >50 from single-concentration assay; for Ki: obtained from Cheng-Prussov equation for competitive inhibitors
T1 sequence (Q8MQV3 entry or part of it): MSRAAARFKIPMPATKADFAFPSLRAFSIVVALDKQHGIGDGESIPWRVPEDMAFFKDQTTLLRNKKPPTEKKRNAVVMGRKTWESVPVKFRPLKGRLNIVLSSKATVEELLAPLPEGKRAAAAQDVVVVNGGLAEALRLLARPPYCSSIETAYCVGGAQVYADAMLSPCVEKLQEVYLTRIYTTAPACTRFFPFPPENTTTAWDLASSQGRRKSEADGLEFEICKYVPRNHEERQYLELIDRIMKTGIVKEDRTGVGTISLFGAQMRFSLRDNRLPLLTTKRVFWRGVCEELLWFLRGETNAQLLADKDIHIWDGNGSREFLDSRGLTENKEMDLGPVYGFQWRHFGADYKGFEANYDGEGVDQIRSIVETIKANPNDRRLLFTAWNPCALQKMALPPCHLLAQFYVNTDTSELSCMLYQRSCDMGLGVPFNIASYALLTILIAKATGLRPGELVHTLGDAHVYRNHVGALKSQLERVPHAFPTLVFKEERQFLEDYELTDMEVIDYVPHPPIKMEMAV
Procedure: (§1) Kinetic measurements were carried out using a standard assay, at pH 7.0 (50 mM sodium phosphate). Briefly, NADPH consumption was monitored spectrophotometrically ([…]) (Shimadzu® UV-1800, Columbia MD, USA) at constant temperature (25 °C) and the absorbance variation within the first 30 s was employed to calculate the initial rate of reaction, by linear regression of the raw data.
(§2) Comparison of the enzymatic activities in the absence and presence of the compounds (50 μM), which were dissolved in DMSO (5% v/v final concentration), was employed to calculate the percent inhibition (Equation (1)) (1) % Inhibition=100 − (Vi/Vc)×100 where Vi is the initial velocity in the presence of the inhibitor and Vc is the reaction rate in the presence of DMSO (5% (v/v)).
(§3) The results of this analysis were plotted in double-reciprocal graphs for visual analysis purposes only.

LcPTR1 [2] = biological target: T2, LcPTR1 (Leishmania infantum, UniProt A4I067); assay: LcPTR1 inhibition assay (single concentration and IC50, NADPH consumption at 340 nm); type: biochemical; settings: for Ki: obtained from Cheng-Prussov equation for competitive inhibitors; for Selectivity Ki LcPTR1/ Ki LcDHFR-TS: ratio of Ki values
T2 sequence (A4I067 entry or part of it): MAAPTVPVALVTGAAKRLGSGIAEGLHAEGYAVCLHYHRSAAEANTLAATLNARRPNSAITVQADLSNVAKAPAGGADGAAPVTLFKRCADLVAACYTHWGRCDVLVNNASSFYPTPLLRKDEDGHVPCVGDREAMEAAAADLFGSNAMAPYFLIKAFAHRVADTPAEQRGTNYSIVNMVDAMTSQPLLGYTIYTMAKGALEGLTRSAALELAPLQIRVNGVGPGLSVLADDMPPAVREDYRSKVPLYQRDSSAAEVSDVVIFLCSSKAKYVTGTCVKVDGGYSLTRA
Procedure: (§4) Kinetic measurements were performed according to the protocol described[32] via spectrophotometer (Shimadzu UV-1800) at pH 4.7 (20 mM sodium acetate). NADPH consumption was monitored spectrophotometrically (340 nm) at constant temperature (30 °C). The variation of the absorbance monitored for 60 s was used to calculate the initial rate of the reaction by linear regression.
as §2, §3

L. major PTR1 = settings: cited from earlier work
L. tropica PTR1 = system: L. tropica PTR1; set-up: method as in PMID 10415124; settings: cited from earlier work
LdPTR1 = system: LdPTR1; set-up: method as in PMID 21115787; settings: double-reciprocal plot, His-tag fused protein; read-out: Km app for LdPTR1; cited from earlier work
L. tarantoleae PTR1 = system: L. tarantoleae PTR1; set-up: method as in PMID 10415124; settings: read-out: Km app for L. tarantoleae PTR1; cited from earlier work
LcDHFR-TS [3] = biological target: T1, LcDHFR-TS; assay: Determination of the inhibition mechanism, LcDHFR-TS; type: biochemical
Source text: as §3

LcPTR1 [4] = biological target: T2, LcPTR1; assay: Determination of the inhibition mechanism, LcPTR1; type: biochemical
Source text: as §3

DHFR-TS [5] = settings: read-out: Km app for L. tropica DHFR-TS; cited from earlier work
LcDHFR-TS [6] = biological target: T1, LcDHFR-TS; assay: LcDHFR-TS apparent Km determination; type: biochemical, Leishmania chagasi
Procedure: as §1
The effect of the pH (5.0–8.0) over enzymatic activity was investigated with 0.2 μM of LcDHFR-TS and saturating NADPH and DHF concentrations (100 μM) (50 mM citrate buffer was used for pH 5.0 activity assay. 50 mM sodium phosphate buffer was used for pH range 6.0 to 8.0 activity assay). […] All the measurements were carried out in triplicate and the apparent Km values for the cofactor and substrate were determined under a pseudo first-order kinetics assumption using least-squares non-linear regression method, as available in the GraphPad Prism version 5.0 for Windows (GraphPad® Software, San Diego, CA, USA, www.graphpad.com).

DHFR-TS [7] = settings: read-out: Km app for L. major DHFR-TS; cited from earlier work
LcPTR1 [8] = biological target: T2, LcPTR1; type: biochemical, Leishmania chagasi; settings: restated without unit; read-out: Km app for LcPTR1
Procedure: as §4

[9] = pH 7.0, 25 °C, other substrate saturating
[10] = pH 7.0, 25 °C, other substrate saturating, read-out: Km app for LcDHFR-TS
[11] = restated without unit, read-out: Km app for LcDHFR

## COc1ccccc1CCc1nc(N)nc(N)c1Cc1ccccc1 [Compound 3]
LcDHFR-TS [1]
  IC50: 4200 nM
  Ki: 700 nM
LcDHFR-TS [1]; pH 7
  LcDHFR-TS inhibition: active
LcPTR1 [2]
  IC50: 4600 nM
  Ki: 2300 nM
  Selectivity Ki LcPTR1/ Ki LcDHFR-TS: 3.3 and 3.29
LcPTR1 [2]; pH 4.7
  LcPTR1 inhibition: active

## biopterin
L. major PTR1
  Km: 4.6 µM
L. tropica PTR1
  Km: 3.5 µM
LdPTR1
  Km: 5.8 µM
L. tarantoleae PTR1
  Km: 3.5 µM

## Nc1nc(N)c(Cc2ccccc2)c(CC2CCCCC2)n1 [Compound 2]
LcDHFR-TS [1]
  IC50: 18000 nM
  Ki: 3000 nM
LcDHFR-TS [1]; pH 7
  inhibition at 50 µM: 20 ± 2.4%
LcPTR1 [2]
  IC50: 4100 nM
  Ki: 2050 nM
  Selectivity Ki LcPTR1/ Ki LcDHFR-TS: 0.68
LcPTR1 [2]; pH 4.7
  inhibition at 50 µM: 40 ± 1%

## Nc1nc(N)c(Cc2ccccc2)c(CCCc2ccccc2)n1 [Compound 1]
LcDHFR-TS [3]; compound 1 at 2 µM
  NADPH Vmax app in presence of inhibitor: 1.0 ± 0.1 nmol/min/mL
LcDHFR-TS [3]; compound 1 at 5 µM
  NADPH Vmax app in presence of inhibitor: 0.5 ± 0.05 nmol/min/mL
LcDHFR-TS [3]; not affected by increasing concentrations of compound 1
  DHF Vmax app in presence of inhibitor: 1.9 ± 0.1 nmol/min/mL
LcDHFR-TS [3]; saturating DHF 12.5 µM, varying NADPH
  mechanism of inhibition related to cofactor NADPH: noncompetitive
LcDHFR-TS [3]; saturating NADPH 50 µM, varying DHF
  mechanism of inhibition related to substrate DHF: competitive
LcDHFR-TS [1]
  IC50: 1650 nM
  Ki: 280 nM
LcDHFR-TS [1]; pH 7
  inhibition at 50 µM: 100 ± 1.17%
LcPTR1 [2]
  IC50: 3000 nM
  Ki: 1500 nM
  Selectivity Ki LcPTR1/ Ki LcDHFR-TS: 5.4 and 5.45
LcPTR1 [2]; pH 4.7
  inhibition at 50 µM: 90 ± 1%
LcPTR1 [4]
  mechanism of inhibition with respect to biopterin: competitive
  mechanism of inhibition with respect to the cofactor NADPH: uncompetitive

## NC(=O)C1=CN([C@@H]2O[C@H](COP(=O)(O)OP(=O)(O)OC[C@H]3O[C@@H](n4cnc5c(N)ncnc54)[C@H](OP(=O)(O)O)[C@@H]3O)[C@@H](O)[C@H]2O)C=CC1 [NADPH]
L. major PTR1
  Km: 6.7 µM
L. tropica PTR1
  Km: 19 µM
LdPTR1
  Km: 18.5 µM
L. tarantoleae PTR1
  Km: 19 µM
DHFR-TS [5]
  Km: 2.7 µM
LcDHFR-TS [6]; [9]
  Vmax app for LcDHFR-TS: 1.6 ± 0.1 nmol/min/mL
LcDHFR-TS [6]; [10]
  Km: 2.3 ± 0.5 µM
LcDHFR-TS [6]; [11]
  Km: 2.3 µM
DHFR-TS [7]
  Km: 0.45 µM
LcPTR1 [8]
  Km: 37.5 µM

## CC(C)Cc1ccc(C(C)c2nc(N)nc(N)c2-c2ccccc2)cc1 (centres unmarked) [Compound 4]
LcDHFR-TS [1]; pH 7
  inhibition at 50 µM: 20 ± 2.4%
LcPTR1 [2]
  IC50: 66300 ± 9010 nM
LcPTR1 [2]; pH 4.7
  inhibition at 50 µM: 40 ± 1%

## Nc1nc(N)c2ccccc2n1 [Compound 5]
LcDHFR-TS [1]
  IC50: > 50000 nM
  Ki: > 8330 nM
LcDHFR-TS [1]; pH 7
  inhibition at 50 µM: 20 ± 2.4%
LcPTR1 [2]
  IC50: 940 nM
  Ki: 470 nM
LcPTR1 [2]; pH 4.7
  inhibition at 50 µM: 98 ± 0.8%
LcPTR1 [2]; selective LcPTR1 inhibitor, LcPTR1 over LcDHFR-TS (abstract)
  selectivity index: 20
LcPTR1 [4]
  mechanism of inhibition with respect to biopterin: competitive
  mechanism of inhibition with respect to the cofactor NADPH: uncompetitive

## Nc1nc(=O)c2c([nH]1)NCC(CNc1ccc(C(=O)N[C@@H](CCC(=O)O)C(=O)O)cc1)=N2 [DHF]
DHFR-TS [5]
  Km: 1.5 µM
LcDHFR-TS [6]; [9]
  Vmax app for LcDHFR-TS: 2.0 ± 0.11 nmol/min/mL
LcDHFR-TS [6]; [10]
  Km: 1 ± 0.2 µM
LcDHFR-TS [6]; [11]
  Km: 1 µM
DHFR-TS [7]
  Km: 1.6 µM
